Measurements: US6448405B1, “Steroid receptor modulator compounds and methods” (Ligand Pharmaceuticals Incorporated, priority 1994, dated 2002)
Read-outs that look alike come from different tables or passages of the source.

What was measured:
[1] = biological target: T1, human PR-B (Homo sapiens, UniProt P06401); test: Co-transfection assay, PR agonist and antagonist activity, CV-1 cells; assay type: cell-based; conditions: for EC50: agonist mode, read-out: PR Agonist CV-1 Cells Potency;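 for all read-outs here: luciferase reporter driven by a hormone response element, co-transfected with human PR-B into CV-1 monkey kidney cells, agonists raise and antagonists lower the reporter signal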
T1 construct: expressed in transfected cells; host or cells: CV-1 cells (African green monkey kidney fibroblasts), transient transfection
T1 sequence (P06401 1-933): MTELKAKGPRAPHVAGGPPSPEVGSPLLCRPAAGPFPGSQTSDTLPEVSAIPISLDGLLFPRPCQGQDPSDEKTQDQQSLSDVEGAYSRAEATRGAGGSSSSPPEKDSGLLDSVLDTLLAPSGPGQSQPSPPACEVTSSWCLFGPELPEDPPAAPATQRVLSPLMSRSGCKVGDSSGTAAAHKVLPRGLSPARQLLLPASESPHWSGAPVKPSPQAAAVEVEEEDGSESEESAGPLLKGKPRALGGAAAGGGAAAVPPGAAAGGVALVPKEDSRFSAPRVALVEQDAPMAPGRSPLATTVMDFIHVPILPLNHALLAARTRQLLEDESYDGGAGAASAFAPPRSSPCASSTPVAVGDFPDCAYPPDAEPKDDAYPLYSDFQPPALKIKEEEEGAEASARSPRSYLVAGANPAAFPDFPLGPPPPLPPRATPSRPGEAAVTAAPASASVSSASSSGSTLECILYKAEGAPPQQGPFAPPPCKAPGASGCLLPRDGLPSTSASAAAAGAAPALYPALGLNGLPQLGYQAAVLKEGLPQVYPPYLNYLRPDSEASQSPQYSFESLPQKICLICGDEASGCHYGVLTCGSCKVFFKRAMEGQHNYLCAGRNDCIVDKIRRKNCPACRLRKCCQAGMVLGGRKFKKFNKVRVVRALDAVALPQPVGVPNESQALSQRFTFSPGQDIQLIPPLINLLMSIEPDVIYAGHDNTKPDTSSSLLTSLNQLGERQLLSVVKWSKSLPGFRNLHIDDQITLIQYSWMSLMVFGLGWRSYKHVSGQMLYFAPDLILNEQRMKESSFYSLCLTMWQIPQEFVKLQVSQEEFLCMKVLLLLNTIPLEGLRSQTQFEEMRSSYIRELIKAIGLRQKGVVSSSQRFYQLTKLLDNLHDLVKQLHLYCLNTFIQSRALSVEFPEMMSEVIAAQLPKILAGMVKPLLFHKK

[2] = biological target: T2, human progesterone receptor A form (PR-A) (Homo sapiens, UniProt P06401); test: PR binding assay, baculovirus extract, [3H] progesterone
T2 sequence (P06401 1-769 isoform P06401-2): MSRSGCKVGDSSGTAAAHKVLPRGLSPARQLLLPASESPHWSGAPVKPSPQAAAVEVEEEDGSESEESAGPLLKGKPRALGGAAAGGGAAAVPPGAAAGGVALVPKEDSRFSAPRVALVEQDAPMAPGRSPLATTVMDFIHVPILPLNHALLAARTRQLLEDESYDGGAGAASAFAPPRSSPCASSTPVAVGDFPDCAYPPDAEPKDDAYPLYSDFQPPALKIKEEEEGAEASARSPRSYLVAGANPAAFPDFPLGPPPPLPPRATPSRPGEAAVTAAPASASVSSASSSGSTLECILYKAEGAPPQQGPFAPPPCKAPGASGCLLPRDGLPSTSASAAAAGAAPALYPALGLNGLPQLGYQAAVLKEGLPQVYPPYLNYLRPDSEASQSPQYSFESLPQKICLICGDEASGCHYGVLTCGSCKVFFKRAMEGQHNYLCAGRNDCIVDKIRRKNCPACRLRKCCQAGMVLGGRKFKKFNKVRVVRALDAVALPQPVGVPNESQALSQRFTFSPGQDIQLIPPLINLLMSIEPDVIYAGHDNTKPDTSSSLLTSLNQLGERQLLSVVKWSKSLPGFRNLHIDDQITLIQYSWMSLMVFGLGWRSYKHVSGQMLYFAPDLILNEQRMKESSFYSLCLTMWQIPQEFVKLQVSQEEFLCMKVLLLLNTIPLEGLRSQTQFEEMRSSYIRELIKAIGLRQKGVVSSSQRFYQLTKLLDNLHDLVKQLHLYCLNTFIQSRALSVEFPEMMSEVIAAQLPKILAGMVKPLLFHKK

[3] = read-out: PR Antagonist CV-1 Cells Potency

Compound	PR Agonist CV-1 Cells Efficacy (%) [1]	PR Antagonist CV-1 Cells Efficacy (%) [1]	EC50 [1] [nM]	IC50 [1, 3] [nM]	Ki ([2]; read-out: PR Binding Ki) [nM]	IC50 [1] [nM]	Ki [2] [nM]	Ki ([2]; competition with [3H] progesterone, 4° C., 16 hours, read-out: PR Binding Ki) [nM]
CC1=CC(C)(C)Nc2ccc(-c3nn(C)cc3Br)cc21 [Compound 104, 6-(4-Bromo-1-methylpyrazol-3-yl)-1,2-dihydro-2,2,4-trimethylquinoline]	39%	71%	2750	120	82	–	–	–
CC1=CC(C)(C)Nc2ccc(-c3cccc(Cl)c3Cl)cc21 [Compound 109, 6-(2,3-Dichlorophenyl)-1,2-dihydro-2,2,4-trimethylquinoline]	na (na = not active (i.e. efficacy or <20 and potency of >10,000))	87%	> 10000	138	23	–	–	–
CC1=CC(C)(C)Nc2ccc3c(c21)/C(=C/c1ccccc1)Oc1ccccc1-3 [Compound 220, (Z)-5-Benzylidene-1,2-dihydro-2,2,4-trimethyl-5H-chromeno[3,4-f]quinoline]	–	na (key: na = not active (i.e. efficacy or <20 and potency of >10,000))	33	–	–	> 10000	1	–
CC1=CC(C)(C)Nc2ccc3c(c21)/C(=C/c1ccc(F)cc1)Oc1ccccc1-3 [Compound 221, (Z)-5-(4-Fluorobenzylidene)-1,2-dihydro-2,2,4-trimethyl-5H-chromeno[3,4-f]quinoline]	–	na (key: na = not active (i.e. efficacy or <20 and potency of >10,000))	117	–	–	> 10000	4	–
CC1=CC(C)(C)Nc2ccc3c(c21)/C(=C/c1ccccc1F)Oc1ccccc1-3 [Compound 228, (Z)-5-(2-Fluorobenzylidene)-1,2-dihydro-2,2,4-trimethyl-5H-chromeno[3,4-f]quinoline]	–	na (key: na = not active (i.e. efficacy or <20 and potency of >10,000))	40	–	–	> 10000	3	–
CC1C(=O)C(C)(C)Nc2ccc(-c3cc(F)cc(C#N)c3)cc21 (stereo not drawn) [Compound 286, 6-(3-Cyano-5-Fluorophenyl)-1,2-dihydro-2,2,4-trimethyl-3-quinolone]	na (na = not active (i.e. efficacy or <20 and potency of >10,000))	84%	> 10000	155	61	–	–	–
CC1=CC(C)(C)Nc2c(F)cc(-c3cccc([N+](=O)[O-])c3)cc21 [Compound 291, 8-Fluoro-1,2-dihydro-2,2,4-trimethyl-6-(3-nitrophenyl)quinoline]	na (na = not active (i.e. efficacy or <20 and potency of >10,000))	79%	> 10000	46	4	–	–	–
CC1=CC(C)(C)Nc2ccc(-c3cccc([N+](=O)[O-])c3)c(Cl)c21 [Compound 310, 5-Chloro-1,2-dihydro-2,2,4-trimethyl-6-(3-nitrophenyl)quinoline]	na (na = not active (i.e. efficacy or <20 and potency of >10,000))	70%	> 10000	260	7	–	–	–
CC1(C)C=Cc2c(ccc3c2c(=O)oc2ccc(Cl)cc23)N1 [Compound 313, 9-Chloro-1,2-dihydro-2,2-dimethyl-5-coumarino[3,4-f]quinoline]	–	–	300	140	87	–	–	–
CC1=CC(C)(C)Nc2ccc3c(c21)COc1c(Cl)cccc1-3 [Compound 331, (R/S)-7-Chloro-1,2-dihydro-2,2,4-trimethyl-5H-chromeno[3,4-f]quinoline]	na (na = not active (i.e. efficacy or <20 and potency of >10,000))	88%	> 10000	210	–	–	–	273
